According to article PMC9786103, “Potent and Selective Inhibition of CYP1A2 Enzyme by Obtusifolin and Its Chemopreventive Effects” (Pharmaceutics, 2022):

How the values were obtained:
Assay type in all cases: biochemical
other P450s = assay: Inhibition of other P450s in human liver microsomes (summary); settings: HLMs, P450s other than CYP1A2; read-out: IC50 against other P450s
From the text: The inhibitory potential of obtusifolin against the biotransformation of eight P450 probe substrates was examined using previously reported methods with slight changes [21, 22]. The following P450 isoform-specific substrates were used: coumarin (CYP2A6); bupropion (CYP2B6); amodiaquine (CYP2C8); tolbutamide (CYP2C9); omeprazole (CYP2C19); dextromethorphan (CYP2D6); chlorzoxazone (CYP2E1); and midazolam (CYP3A). Mixtures of pooled HLM, P450 substrates, and obtusifolin (0, 0.05, 0.2, 0.5, 2, 5, or 10 µM for CYP1A2; and 0, 0.5, 2, 5, 20, or 50 µM for the other P450 isoforms) were pre-incubated (5 min, 37 °C). NGS was introduced to start the reaction, which was followed by an additional incubation (15 min). Following reaction termination, aliquots of the supernatants were analyzed with LC-MS/MS.

CYP2C8 = target: T1, CYP2C8 (Homo sapiens, UniProt P10632); assay: Amodiaquine N-deethylation in human liver microsomes; settings: HLMs
T1 construct: Mixtures of pooled HLM, P450 substrates, and obtusifolin; tissue XenoTech XTreme 200; host or cells: pooled human liver microsomes
T1 sequence (P10632 1-490): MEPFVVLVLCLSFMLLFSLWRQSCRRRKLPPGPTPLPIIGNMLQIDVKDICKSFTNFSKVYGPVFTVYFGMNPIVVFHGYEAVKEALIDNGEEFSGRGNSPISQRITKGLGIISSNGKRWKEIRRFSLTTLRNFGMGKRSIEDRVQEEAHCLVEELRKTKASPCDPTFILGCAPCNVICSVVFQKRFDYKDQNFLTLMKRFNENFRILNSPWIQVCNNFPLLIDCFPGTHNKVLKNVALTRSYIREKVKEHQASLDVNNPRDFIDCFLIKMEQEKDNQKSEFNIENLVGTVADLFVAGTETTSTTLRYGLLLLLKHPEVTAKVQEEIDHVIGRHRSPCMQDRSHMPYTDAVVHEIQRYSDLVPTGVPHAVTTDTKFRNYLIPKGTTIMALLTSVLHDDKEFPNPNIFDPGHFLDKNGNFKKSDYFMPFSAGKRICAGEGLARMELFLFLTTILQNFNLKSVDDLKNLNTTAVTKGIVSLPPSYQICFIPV
Procedure: (§2) The following P450 isoform-specific substrates were used: coumarin (CYP2A6); bupropion (CYP2B6); amodiaquine (CYP2C8); tolbutamide (CYP2C9); omeprazole (CYP2C19); dextromethorphan (CYP2D6); chlorzoxazone (CYP2E1); and midazolam (CYP3A). […] NGS was introduced to start the reaction, which was followed by an additional incubation (15 min). Following reaction termination, aliquots of the supernatants were analyzed with LC-MS/MS.
(§3) Reverse phase column (Kinetex XB-C18, 100 × 2.10 mm; Phenomenex, Torrance, CA, USA) and triple-quadrupole mass spectrometer (LCMS 8060, Shimadzu, Kyoto, Japan) with an ultra high-performance LC system (Nexera X2, Shimadzu) analyze all the metabolites. […] For each metabolite, quantitation was carried out in selected reaction monitoring (SRM) mode using the following precursor-to-product ion transition: m/z 152 > 110 for acetaminophen (CYP1A2), m/z 214 > 186 for resorufin (CYP1A1 and CYP1A2), m/z 163 > 107 for 7-hydroxycoumarin (CYP2A6), m/z 256 > 238 for 6-hydroxybupropion (CYP2B6), m/z 328 > 283 for N-desethylamodiaquine (CYP2C8), m/z 287 > 89 for 5-hydroxytolbutamide (CYP2C9), m/z 362 > 214 for 4-hydroxyomeprazole (CYP2C9), m/z 258 > 157 for dextrorphan (CYP2D6), m/z 184 > 120 for 6-hydroxychlorzoxazone (CYP2E1), m/z 342 > 203 for 1′-hydroxymidazolam (CYP3A), and m/z 295 > 100 for trimipramine (IS) [23, 24].

[1] = target: T2, recombinant CYP1A2 (rCYP1A2) (Homo sapiens, UniProt P05177); assay: Inhibition of CYP1A2-mediated POD in recombinant CYP1A2; settings: rCYP1A2 10 pmol/mL
T2 construct: purchased SPMED (Busan, Republic of Korea)
T2 sequence (P05177 1-516): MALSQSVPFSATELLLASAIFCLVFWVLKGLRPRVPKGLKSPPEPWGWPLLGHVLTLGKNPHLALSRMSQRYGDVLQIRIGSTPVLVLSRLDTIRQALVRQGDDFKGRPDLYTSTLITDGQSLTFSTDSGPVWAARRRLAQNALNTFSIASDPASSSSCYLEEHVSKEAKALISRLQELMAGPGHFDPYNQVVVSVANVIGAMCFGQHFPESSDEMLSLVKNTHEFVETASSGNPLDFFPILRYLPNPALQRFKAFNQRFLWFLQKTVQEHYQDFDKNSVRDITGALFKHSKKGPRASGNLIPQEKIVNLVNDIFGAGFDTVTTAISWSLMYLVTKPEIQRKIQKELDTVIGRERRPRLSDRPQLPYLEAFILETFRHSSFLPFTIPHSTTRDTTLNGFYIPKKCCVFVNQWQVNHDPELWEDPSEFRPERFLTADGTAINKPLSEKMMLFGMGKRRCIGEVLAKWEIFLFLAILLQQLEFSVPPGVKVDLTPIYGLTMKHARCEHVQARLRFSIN
From the text: The other conditions were similar to those used in the P450 inhibition study, as described earlier.
WinNonlin software (Pharsight, Mountain View, CA, USA) was used to calculate IC50 values. Based on Lineweaver–Burk double reciprocal plots, secondary plots of Lineweaver–Burk plots versus obtusifolin concentrations, and visual inspection of Dixon plots, the type of inhibition and apparent kinetic parameters for inhibitory activity (Ki) were estimated.

rCYP1A1 = target: T3, rCYP1A1 (Homo sapiens, UniProt P04798); assay: Ethoxyresorufin O-deethylation (EROD) in recombinant CYP1A1; settings: rCYP1A1 10 pmol/mL, 7-ethoxyresorufin 2 µM, 20 min; read-out: IC50, CYP1A1-mediated EROD
T3 construct: purchased SPMED (Busan, Republic of Korea)
T3 sequence (P04798 1-512): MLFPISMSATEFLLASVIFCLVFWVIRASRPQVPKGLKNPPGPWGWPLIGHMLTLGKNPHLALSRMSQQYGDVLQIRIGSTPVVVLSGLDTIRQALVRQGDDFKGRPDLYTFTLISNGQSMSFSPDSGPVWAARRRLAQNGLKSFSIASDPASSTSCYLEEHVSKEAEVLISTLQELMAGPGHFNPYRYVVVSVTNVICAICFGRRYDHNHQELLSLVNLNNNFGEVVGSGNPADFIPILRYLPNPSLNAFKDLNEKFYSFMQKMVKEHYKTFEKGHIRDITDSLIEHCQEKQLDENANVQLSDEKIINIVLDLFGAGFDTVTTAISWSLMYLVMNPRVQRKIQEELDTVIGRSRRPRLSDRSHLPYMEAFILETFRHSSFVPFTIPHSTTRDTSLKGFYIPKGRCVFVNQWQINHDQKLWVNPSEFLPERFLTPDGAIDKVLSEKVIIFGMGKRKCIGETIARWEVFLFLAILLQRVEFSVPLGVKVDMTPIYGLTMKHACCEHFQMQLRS
Procedure: (§1) The inhibitory effects of obtusifolin on the CYP1A-mediated ethoxyresorufin O-deethylation (EROD) activity of rCYP1A1 and rCYP1A2 enzymes (10 pmol/mL) were investigated. […] The other conditions, except for the incubation time (20 min), were similar to those used in the P450 inhibition study, as described earlier.

CYP2A6 = target: T4, CYP2A6 (Homo sapiens, UniProt P11509); assay: Coumarin 7-hydroxylation in human liver microsomes; settings: HLMs
T4 construct: Mixtures of pooled HLM, P450 substrates, and obtusifolin; tissue XenoTech XTreme 200; host or cells: pooled human liver microsomes
T4 sequence (P11509 1-494): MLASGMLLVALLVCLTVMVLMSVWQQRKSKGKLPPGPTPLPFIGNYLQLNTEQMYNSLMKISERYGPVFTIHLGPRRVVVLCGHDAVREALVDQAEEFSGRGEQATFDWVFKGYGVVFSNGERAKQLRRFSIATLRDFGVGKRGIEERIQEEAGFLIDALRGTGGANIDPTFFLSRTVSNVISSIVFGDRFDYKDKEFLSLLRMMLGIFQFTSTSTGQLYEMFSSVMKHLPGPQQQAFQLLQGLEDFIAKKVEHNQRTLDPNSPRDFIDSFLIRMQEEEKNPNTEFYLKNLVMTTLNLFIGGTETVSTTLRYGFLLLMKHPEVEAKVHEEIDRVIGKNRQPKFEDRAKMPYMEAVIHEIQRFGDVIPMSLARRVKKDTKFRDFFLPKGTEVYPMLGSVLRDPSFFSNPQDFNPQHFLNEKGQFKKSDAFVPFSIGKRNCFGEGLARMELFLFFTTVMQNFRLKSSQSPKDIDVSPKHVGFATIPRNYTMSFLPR
Procedure: as §2, §3

CYP2C19 = target: T5, CYP2C19 (Homo sapiens, UniProt P33261); assay: Omeprazole 4-hydroxylation in human liver microsomes; settings: HLMs
T5 construct: Mixtures of pooled HLM, P450 substrates, and obtusifolin; tissue XenoTech XTreme 200; host or cells: pooled human liver microsomes
T5 sequence (P33261 whole entry): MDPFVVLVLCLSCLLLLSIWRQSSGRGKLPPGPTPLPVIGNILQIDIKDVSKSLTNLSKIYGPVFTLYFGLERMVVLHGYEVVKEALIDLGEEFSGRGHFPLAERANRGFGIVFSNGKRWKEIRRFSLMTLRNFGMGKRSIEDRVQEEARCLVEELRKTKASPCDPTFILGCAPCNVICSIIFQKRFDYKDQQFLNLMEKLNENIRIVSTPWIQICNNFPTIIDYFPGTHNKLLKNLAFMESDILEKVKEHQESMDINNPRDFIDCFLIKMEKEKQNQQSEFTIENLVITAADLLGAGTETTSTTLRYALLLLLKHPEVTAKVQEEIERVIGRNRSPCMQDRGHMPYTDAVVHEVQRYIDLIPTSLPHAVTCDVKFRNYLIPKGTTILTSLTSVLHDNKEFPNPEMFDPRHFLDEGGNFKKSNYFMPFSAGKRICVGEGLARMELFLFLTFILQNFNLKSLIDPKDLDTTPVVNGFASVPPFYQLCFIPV
Procedure: as §2, §3

rCYP1A2 = target: T6, rCYP1A2 (Homo sapiens, UniProt P05177); assay: Ethoxyresorufin O-deethylation (EROD) in recombinant CYP1A2; settings: rCYP1A2 10 pmol/mL, 7-ethoxyresorufin 2 µM, 20 min; read-out: IC50, CYP1A2-mediated EROD
T6 construct: purchased SPMED (Busan, Republic of Korea)
T6 sequence (P05177 1-516): T2 sequence (P05177 1-516)
Procedure: as §1

## COc1c(O)c(C)cc2c1C(=O)c1c(O)cccc1C2=O [Obtusifolin, obtusifolin]
Other P450s
  IC50: > 28600 nM
CYP2C8
  IC50: 31400 nM
[1]; phenacetin, read-out: IC50, CYP1A2-mediated phenacetin O-deethylation
  IC50: 370 ± 110 nM
[1]; read-out: Ki, CYP1A2-mediated phenacetin O-deethylation
  Ki: 210 ± 53 nM
rCYP1A1
  IC50: 390 ± 60 nM
CYP2A6
  IC50: > 50000 nM
CYP2C19
  IC50: > 50000 nM
rCYP1A2
  IC50: 570 ± 110 nM
